In ChEMBL document CHEMBL1123439, “Folate analogues. 26. Syntheses and antifolate activity of 10-substituted derivatives of 5,8-dideazafolic acid and of the poly-gamma-glutamyl metabolites of N10-propargyl-5,8-dideazafolic acid (PDDF)” (J Med Chem, 1986):

Assays:
Dihydrofolate reductase = Dihydrofolate reductase (Lactobacillus casei, UniProt P00381); assay: Inhibitory activity against dihydrofolate reductase of Lactobacillus casei; parameters: species or system Lacticaseibacillus casei
L1210 [1] = assay: Inhibition of thymidylate synthesis in L1210 cells at 100 uM; type: functional; conditions: Mus musculus
L1210 [2] = assay: Inhibition of thymidylate synthesis in L1210 intact cells at 10 uM; type: functional; conditions: Mus musculus
Lacticaseibacillus casei [3] = assay: Inhibitory activity against Lactobacillus casei ATCC 7469; type: functional, organism-based
Thymidylate synthase = biological target: T1, Thymidylate synthase (Lactobacillus casei, UniProt P00469); assay: Inhibitory activity against thymidylate synthase of Lactobacillus casei; parameters: species or system Lacticaseibacillus casei
T1 sequence (P00469 whole entry): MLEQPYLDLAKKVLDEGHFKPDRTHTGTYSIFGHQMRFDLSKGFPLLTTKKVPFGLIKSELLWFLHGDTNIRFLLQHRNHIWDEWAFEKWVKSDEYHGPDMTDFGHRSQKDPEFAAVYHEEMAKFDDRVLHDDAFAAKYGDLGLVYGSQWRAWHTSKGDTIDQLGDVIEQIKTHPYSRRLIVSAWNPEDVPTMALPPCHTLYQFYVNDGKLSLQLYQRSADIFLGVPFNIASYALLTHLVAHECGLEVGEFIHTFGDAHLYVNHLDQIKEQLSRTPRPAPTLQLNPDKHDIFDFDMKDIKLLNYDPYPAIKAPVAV

Enterococcus faecium [4] = assay: Inhibitory activity against Streptococcus faecium ATCC 8043; type: functional, organism-based
Enterococcus faecium [5] = assay: Inhibitory activity against Streptococcus faecium MTX-resistant; type: functional, organism-based
L1210 [6] = assay: Inhibition of thymidylate synthesis in permeabilised cells; type: functional, cell-based; conditions: Mus musculus
Lacticaseibacillus casei [7] = assay: Inhibitory activity against Lactobacillus casei MTX-resistant; type: functional, organism-based

Sequence of Dihydrofolate reductase (P00381 whole entry): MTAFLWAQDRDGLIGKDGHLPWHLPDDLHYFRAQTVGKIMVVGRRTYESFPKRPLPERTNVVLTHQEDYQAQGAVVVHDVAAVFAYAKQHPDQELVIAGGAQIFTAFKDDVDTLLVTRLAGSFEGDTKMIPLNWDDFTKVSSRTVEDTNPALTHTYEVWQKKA

C#CN(Cc1ccc2nc(N)nc(O)c2c1)c1ccc(C(=O)NC(CCC(=O)O)C(=O)NC(CCC(=O)NC(CCC(=O)NC(CCC(=O)NC(CCC(=O)O)C(=O)O)C(=O)O)C(=O)O)C(=O)O)cc1 (stereo unspecified)
IC50 (Dihydrofolate reductase): 2.9 µM
inhibition at 100 µM (L1210 [1]): 8%
inhibition at 10 µM (L1210 [2]): 0%
IC50 (Lacticaseibacillus casei [3]): 0.35 nM
IC50 (Thymidylate synthase): 0.013 µM
IC50 (Enterococcus faecium [4]): > 0.08 µM
IC50 (Enterococcus faecium [5]): > 0.8 µM
IC50 (L1210 [6]): 0.002 µM
IC50 (Lacticaseibacillus casei [7]): > 20 µM

Nc1nc(O)c2cc(CN(CC3CC3)c3ccc(C(=O)N[C@@H](CCC(=O)O)C(=O)O)cc3)ccc2n1
IC50 (Dihydrofolate reductase): 2.3 µM
IC50 (Lacticaseibacillus casei [3]): 8.1 nM
IC50 (Thymidylate synthase): 12 µM
IC50 (Enterococcus faecium [4]): 0.0026 µM
IC50 (Enterococcus faecium [5]): 1.5 µM
IC50 (L1210 [6]): 82 µM
IC50 (Lacticaseibacillus casei [7]): > 20 µM

CN(Cc1cnc2nc(N)nc(N)c2n1)c1ccc(C(=O)N[C@@H](CCC(=O)O)C(=O)O)cc1 [METHOTREXATE]
inhibition at 100 µM (L1210 [1]): 98%
inhibition at 10 µM (L1210 [2]): 95%
IC50 (Lacticaseibacillus casei [3]): 0.03 nM
IC50 (Enterococcus faecium [4]): 0.0003 µM
IC50 (Enterococcus faecium [5]): 3.9 µM
IC50 (L1210 [6]): 60 µM
IC50 (Lacticaseibacillus casei [7]): > 1000 µM

C#CN(Cc1ccc2nc(N)nc(O)c2c1)c1ccc(C(=O)NC(CCC(=O)NC(CCC(=O)NC(CCC(=O)O)C(=O)O)C(=O)O)C(=O)O)cc1 (stereo unspecified)
IC50 (Dihydrofolate reductase): 5.3 µM
inhibition at 100 µM (L1210 [1]): 8%
inhibition at 10 µM (L1210 [2]): 0%
IC50 (Lacticaseibacillus casei [3]): 0.08 nM
IC50 (Thymidylate synthase): 0.014 µM
IC50 (Enterococcus faecium [4]): 0.034 µM
IC50 (Enterococcus faecium [5]): > 0.8 µM
IC50 (L1210 [6]): 0.002 µM
IC50 (Lacticaseibacillus casei [7]): 1.1 µM

CC#CCN(Cc1ccc2nc(N)nc(O)c2c1)c1ccc(C(=O)N[C@@H](CCC(=O)O)C(=O)O)cc1
IC50 (Dihydrofolate reductase): 250 µM
IC50 (Lacticaseibacillus casei [3]): 86 nM
IC50 (Thymidylate synthase): 4.4 µM
IC50 (Enterococcus faecium [4]): 0.0067 µM
IC50 (Enterococcus faecium [5]): 1.6 µM
IC50 (L1210 [6]): 14 µM
IC50 (Lacticaseibacillus casei [7]): > 20 µM

C#CN(Cc1ccc2nc(N)nc(O)c2c1)c1ccc(C(=O)NC(CCC(=O)O)C(=O)NC(CCC(=O)O)C(=O)O)cc1 (stereo unspecified)
inhibition at 100 µM (L1210 [1]): 32%
inhibition at 10 µM (L1210 [2]): 0%
IC50 (Lacticaseibacillus casei [3]): 0.05 nM
IC50 (Enterococcus faecium [4]): 0.00036 µM
IC50 (Enterococcus faecium [5]): 0.125 µM
IC50 (L1210 [6]): 0.006 µM
IC50 (Lacticaseibacillus casei [7]): 0.28 µM

C#CN(Cc1ccc2nc(N)nc(O)c2c1)c1ccc(C(=O)NC(CCC=O)C(=O)O)cc1 (stereo unspecified)
inhibition at 100 µM (L1210 [1]): 87%
inhibition at 10 µM (L1210 [2]): 55%
IC50 (Lacticaseibacillus casei [3]): 0.4 nM
IC50 (Enterococcus faecium [4]): 0.00013 µM
IC50 (Enterococcus faecium [5]): 0.02 µM
IC50 (L1210 [6]): 0.03 µM

C#CN(Cc1ccc2nc(N)nc(O)c2c1)c1ccc(C(=O)NC(CCC(=O)O)C(=O)NC(CCC(=O)NC(CCC(=O)NC(CCC(=O)O)C(=O)O)C(=O)O)C(=O)O)cc1 (stereo unspecified)
IC50 (Dihydrofolate reductase): 3.7 µM
inhibition at 100 µM (L1210 [1]): 3%
inhibition at 10 µM (L1210 [2]): 0%
IC50 (Lacticaseibacillus casei [3]): 0.18 nM
IC50 (Thymidylate synthase): 0.014 µM
IC50 (Enterococcus faecium [4]): 0.075 µM
IC50 (Enterococcus faecium [5]): > 0.8 µM
IC50 (L1210 [6]): 0.0014 µM
IC50 (Lacticaseibacillus casei [7]): > 20 µM
